From ChEMBL document CHEMBL3259595, “Nitric oxide synthase inhibitors that interact with both heme propionate and tetrahydrobiopterin show high isoform selectivity” (J Med Chem, 2014)

What was measured:
Nitric oxide synthase 1 = Nitric oxide synthase 1 (Rattus norvegicus, UniProt P29476); assay: Inhibition of purified rat nNOS assessed as inhibition of nitric oxide-mediated oxidation of hemoglobin-A by hemoglobin capture assay
[1] = target: T1, Nitric oxide synthase, inducible (Mus musculus, UniProt P29477); assay: Inhibition of purified mouse iNOS assessed as inhibition of nitric oxide-mediated oxidation of hemoglobin-A by hemoglobin capture assay
T1 sequence (P29477 whole entry): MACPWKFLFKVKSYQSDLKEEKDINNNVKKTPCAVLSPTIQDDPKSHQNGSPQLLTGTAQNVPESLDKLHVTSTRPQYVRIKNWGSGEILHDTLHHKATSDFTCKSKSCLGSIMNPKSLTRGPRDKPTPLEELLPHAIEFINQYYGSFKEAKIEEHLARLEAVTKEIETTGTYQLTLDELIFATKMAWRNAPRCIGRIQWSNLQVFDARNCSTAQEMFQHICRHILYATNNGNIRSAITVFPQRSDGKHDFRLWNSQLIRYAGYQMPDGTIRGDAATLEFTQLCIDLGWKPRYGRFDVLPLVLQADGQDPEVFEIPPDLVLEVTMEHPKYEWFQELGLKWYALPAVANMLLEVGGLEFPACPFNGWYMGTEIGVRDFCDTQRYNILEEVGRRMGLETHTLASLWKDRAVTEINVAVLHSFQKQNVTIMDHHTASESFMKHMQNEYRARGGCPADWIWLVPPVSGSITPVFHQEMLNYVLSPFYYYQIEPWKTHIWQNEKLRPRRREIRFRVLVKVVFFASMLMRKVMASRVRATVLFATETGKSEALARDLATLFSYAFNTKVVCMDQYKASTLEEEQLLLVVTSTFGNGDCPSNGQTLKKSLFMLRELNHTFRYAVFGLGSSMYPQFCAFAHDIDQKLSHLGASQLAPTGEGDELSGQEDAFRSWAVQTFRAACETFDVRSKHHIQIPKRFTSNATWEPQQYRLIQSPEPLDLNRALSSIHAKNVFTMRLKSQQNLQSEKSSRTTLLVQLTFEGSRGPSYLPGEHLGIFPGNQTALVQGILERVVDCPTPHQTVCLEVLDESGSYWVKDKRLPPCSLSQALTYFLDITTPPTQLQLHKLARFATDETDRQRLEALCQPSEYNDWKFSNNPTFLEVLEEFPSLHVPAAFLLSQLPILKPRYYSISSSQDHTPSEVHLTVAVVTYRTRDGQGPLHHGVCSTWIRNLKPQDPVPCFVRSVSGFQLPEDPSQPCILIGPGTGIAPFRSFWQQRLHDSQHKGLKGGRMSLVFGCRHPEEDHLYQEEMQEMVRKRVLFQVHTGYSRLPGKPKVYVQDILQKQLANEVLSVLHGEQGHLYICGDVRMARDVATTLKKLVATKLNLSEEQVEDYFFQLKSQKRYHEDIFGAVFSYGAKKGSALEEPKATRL

Nitric oxide synthase 3 = target: T2, Nitric oxide synthase 3 (Bos taurus, UniProt P29473); assay: Inhibition of purified bovine eNOS assessed as inhibition of nitric oxide-mediated oxidation of hemoglobin-A by hemoglobin capture assay
T2 sequence (P29473 whole entry): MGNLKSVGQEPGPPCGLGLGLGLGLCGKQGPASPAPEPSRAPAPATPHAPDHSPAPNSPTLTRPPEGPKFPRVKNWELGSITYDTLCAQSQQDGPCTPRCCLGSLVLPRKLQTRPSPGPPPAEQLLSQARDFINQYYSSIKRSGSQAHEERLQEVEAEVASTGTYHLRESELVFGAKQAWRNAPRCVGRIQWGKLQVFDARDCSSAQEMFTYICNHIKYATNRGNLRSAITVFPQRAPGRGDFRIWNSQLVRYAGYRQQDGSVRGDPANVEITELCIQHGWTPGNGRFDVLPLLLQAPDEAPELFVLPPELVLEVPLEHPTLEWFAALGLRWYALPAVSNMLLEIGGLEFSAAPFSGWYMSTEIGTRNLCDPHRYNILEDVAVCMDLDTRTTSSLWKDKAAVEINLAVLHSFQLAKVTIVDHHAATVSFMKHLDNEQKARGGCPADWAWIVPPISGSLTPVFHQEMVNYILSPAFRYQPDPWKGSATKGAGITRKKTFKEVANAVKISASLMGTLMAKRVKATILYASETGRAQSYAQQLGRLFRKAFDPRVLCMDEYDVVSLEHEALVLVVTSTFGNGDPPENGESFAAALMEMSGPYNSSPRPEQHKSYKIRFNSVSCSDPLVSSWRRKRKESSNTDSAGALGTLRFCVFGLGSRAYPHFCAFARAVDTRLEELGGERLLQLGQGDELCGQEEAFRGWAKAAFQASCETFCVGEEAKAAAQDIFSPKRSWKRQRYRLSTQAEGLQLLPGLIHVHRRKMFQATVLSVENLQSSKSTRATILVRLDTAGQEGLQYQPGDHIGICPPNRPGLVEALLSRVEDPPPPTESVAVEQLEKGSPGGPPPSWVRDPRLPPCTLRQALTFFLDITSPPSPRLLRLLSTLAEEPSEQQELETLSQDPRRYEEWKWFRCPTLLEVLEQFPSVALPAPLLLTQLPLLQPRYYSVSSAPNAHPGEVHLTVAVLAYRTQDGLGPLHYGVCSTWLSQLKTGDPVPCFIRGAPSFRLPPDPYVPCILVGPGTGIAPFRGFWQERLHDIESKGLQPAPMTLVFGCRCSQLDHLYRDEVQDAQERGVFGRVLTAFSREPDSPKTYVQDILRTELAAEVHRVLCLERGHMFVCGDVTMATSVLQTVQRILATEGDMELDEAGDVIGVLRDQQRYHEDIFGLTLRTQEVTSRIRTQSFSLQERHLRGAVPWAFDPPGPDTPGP

[2] = Selectivity ratio of Ki for purified mouse iNOS to Ki for purified rat nNOS
[3] = Selectivity ratio of Ki for purified bovine eNOS to Ki for purified rat nNOS

Sequence of Nitric oxide synthase 1 (P29476 whole entry): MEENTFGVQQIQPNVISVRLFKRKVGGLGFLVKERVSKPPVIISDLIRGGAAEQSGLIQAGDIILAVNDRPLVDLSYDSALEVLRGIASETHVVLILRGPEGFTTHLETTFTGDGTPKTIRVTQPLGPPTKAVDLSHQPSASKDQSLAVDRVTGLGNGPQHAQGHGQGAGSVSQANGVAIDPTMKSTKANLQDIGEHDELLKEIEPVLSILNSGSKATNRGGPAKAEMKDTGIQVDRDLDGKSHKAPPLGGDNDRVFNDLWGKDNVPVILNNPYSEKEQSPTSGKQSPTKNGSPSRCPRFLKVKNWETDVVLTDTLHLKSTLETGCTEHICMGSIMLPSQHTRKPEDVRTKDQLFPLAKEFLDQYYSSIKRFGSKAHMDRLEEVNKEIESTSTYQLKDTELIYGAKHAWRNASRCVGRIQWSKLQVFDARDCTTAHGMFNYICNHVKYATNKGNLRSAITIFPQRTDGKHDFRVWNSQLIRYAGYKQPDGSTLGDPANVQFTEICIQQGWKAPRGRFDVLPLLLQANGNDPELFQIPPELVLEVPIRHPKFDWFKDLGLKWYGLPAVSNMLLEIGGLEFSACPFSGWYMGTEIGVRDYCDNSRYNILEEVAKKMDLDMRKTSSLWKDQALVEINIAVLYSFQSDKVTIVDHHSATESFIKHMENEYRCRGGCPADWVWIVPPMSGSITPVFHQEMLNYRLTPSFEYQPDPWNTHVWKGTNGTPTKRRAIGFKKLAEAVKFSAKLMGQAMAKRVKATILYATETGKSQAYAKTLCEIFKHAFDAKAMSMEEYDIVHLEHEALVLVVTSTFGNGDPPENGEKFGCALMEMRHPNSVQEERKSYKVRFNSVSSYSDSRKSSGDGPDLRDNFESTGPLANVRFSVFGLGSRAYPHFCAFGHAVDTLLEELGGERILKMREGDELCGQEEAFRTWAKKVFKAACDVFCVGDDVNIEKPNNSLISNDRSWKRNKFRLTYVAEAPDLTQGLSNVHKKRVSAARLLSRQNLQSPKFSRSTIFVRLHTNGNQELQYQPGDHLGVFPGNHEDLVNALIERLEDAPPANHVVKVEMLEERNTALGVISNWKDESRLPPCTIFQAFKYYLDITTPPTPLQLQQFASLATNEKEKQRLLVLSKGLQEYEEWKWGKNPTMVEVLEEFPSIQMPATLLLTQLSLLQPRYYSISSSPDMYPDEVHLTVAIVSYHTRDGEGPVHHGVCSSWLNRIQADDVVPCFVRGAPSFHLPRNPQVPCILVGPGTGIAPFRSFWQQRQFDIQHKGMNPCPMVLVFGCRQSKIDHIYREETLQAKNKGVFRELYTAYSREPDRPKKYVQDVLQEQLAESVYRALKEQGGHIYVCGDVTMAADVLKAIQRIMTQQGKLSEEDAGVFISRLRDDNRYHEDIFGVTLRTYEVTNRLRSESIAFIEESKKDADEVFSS

Row | Ki (Nitric oxide synthase 1) | SMILES | Ki [1] | Ki (Nitric oxide synthase 3) | Ratio Ki [2] | Ratio Ki [3]
1 | 0.123 µM | Cc1cc(N)nc(CCc2cccc(C(CN)Cc3cc(C)cc(N)n3)n2)c1 (racemic) | 17.9 µM | – | – | –
2 | 0.07 µM | Cc1cc(N)nc(CCc2cccc(C(O)Cc3cc(C)cc(N)n3)c2)c1 (configuration not stated) | 5.99 µM | 3.61 µM | 86 | 52
3 | – | Cc1ccnc(CCc2cccc([C@H](N)Cc3cc(C)cc(N)n3)c2)c1 | > 100 µM | 1050 µM | – | –
4 | – | Cc1ccnc(CCc2cccc([C@@H](N)Cc3cc(C)cc(N)n3)c2)c1 | > 100 µM | – | > 110 | 363
